Earlier results as cited in US8481518B2, “Quaternary antimuscarinic compounds for the treatment of bladder diseases” (University of Rochester, priority 2003, dated 2013).
Structures can show the parent of a compound that is named as a salt.

What was measured:
[1] = oral, 5 mg/kg four times/day
[2] = intravesical instillation two to three times daily
[3] = generally 25 mg twice daily, adults with urge incontinence
[4] = system: all subtypes of human muscarinic receptors; conditions: in vitro

Structure (SMILES): COC(=O)C1=CC[C@@H]2CC[C@H]1N2C [AEME, Anhydroecgonine methyl ester]
- cholinergic agonist activity (muscarinic receptors; guinea pig tracheal rings and detrusor muscle in vitro): lacked cholinergic agonist activity
- muscarinic antagonism (muscarinic receptors; in vitro): potent non-competitive muscarinic antagonist

Structure (SMILES): CCN(CC)CC#CCOC(=O)C(O)(c1ccccc1)C1CCCCC1 (stereo not drawn) [oxybutynin, (4-diethylamino)2-butynyl-cc-cyclohexyl-a-hydroxybenzeneacetate HCl]
- severe mouth dryness, subjects affected [1]: 84%
- patients dropping out due to inability to tolerate catheterization or difficulty retaining drug solution [2]: 21%

Structure (SMILES): CC(CC(c1ccccc1)c1ccccc1)NC(C)(C)C (stereo not drawn) [terodiline]
- effect on micturition frequency and incontinence episodes [3]: reduced micturition frequency and incontinence episodes

Structure (SMILES): C[N+]1(C)[C@@H]2C[C@@H](OC(=O)C(O)(c3cccs3)c3cccs3)C[C@H]1[C@@H]1O[C@@H]12 [tiotropium bromide, 6β,7β,Epoxy-3α-[2-hydroxy-2,2-di(2-thienyl)acetoxy]-8,8-dimethyl-1αH,5αH-tropanium bromide]
- antagonism at all subtypes of human muscarinic receptors [4]: 10-11 M
